Source: ChEMBL document CHEMBL5291721, “A preclinical secondary pharmacology resource illuminates target-adverse drug reaction associations of marketed drugs” (Nat Commun, 2023)

How the values were obtained:
Acetylcholinesterase = Acetylcholinesterase (Homo sapiens, UniProt P22303); assay type: functional
[1] = target: T1, Alpha-1A adrenergic receptor (Homo sapiens, UniProt P35348); assay type: functional, cell-based
T1 sequence (P35348 whole entry): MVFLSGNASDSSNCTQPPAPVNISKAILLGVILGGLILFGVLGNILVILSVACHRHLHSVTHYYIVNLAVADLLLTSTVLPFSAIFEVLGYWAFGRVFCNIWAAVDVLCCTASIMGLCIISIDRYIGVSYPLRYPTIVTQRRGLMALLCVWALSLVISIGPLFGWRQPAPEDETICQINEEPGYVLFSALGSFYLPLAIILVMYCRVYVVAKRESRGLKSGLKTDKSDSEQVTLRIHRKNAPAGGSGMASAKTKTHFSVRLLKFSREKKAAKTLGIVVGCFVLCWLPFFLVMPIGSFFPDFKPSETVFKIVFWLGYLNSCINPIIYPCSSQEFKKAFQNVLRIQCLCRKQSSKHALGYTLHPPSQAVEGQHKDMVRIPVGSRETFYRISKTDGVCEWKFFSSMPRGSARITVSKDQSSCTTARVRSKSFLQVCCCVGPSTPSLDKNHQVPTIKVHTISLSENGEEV

[2] = target: T2, Alpha-2A adrenergic receptor (Homo sapiens, UniProt P08913)
T2 sequence (P08913 whole entry): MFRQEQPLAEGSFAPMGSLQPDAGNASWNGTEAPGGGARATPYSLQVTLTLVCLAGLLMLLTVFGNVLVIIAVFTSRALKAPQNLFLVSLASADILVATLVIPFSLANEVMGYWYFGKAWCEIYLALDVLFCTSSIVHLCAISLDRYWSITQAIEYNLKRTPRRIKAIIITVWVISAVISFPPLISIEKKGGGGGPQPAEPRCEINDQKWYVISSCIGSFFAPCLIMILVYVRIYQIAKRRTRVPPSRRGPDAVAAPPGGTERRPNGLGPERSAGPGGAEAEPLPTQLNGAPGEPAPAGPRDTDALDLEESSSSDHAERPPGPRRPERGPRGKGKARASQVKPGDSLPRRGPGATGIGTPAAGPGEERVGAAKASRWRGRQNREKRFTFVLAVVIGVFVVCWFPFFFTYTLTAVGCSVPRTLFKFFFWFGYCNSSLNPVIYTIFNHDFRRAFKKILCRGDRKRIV

[3] = target: Beta-1 adrenergic receptor (Homo sapiens, UniProt P08588); assay type: functional
Vasopressin V1a receptor = Vasopressin V1a receptor (Homo sapiens, UniProt P37288)
Vasopressin V2 receptor = Vasopressin V2 receptor (Homo sapiens, UniProt P30518)
Cannabinoid receptor 1 [4] = target: T3, Cannabinoid receptor 1 (Homo sapiens, UniProt P21554); assay type: functional, cell-based
Cannabinoid receptor 1 [5] = target: T3, Cannabinoid receptor 1
D(1A) dopamine receptor = D(1A) dopamine receptor (Homo sapiens, UniProt P21728)
D(3) dopamine receptor = D(3) dopamine receptor (Homo sapiens, UniProt P35462)
Estrogen receptor = target: T4, Estrogen receptor (Homo sapiens, UniProt P03372)
T4 sequence (P03372 whole entry): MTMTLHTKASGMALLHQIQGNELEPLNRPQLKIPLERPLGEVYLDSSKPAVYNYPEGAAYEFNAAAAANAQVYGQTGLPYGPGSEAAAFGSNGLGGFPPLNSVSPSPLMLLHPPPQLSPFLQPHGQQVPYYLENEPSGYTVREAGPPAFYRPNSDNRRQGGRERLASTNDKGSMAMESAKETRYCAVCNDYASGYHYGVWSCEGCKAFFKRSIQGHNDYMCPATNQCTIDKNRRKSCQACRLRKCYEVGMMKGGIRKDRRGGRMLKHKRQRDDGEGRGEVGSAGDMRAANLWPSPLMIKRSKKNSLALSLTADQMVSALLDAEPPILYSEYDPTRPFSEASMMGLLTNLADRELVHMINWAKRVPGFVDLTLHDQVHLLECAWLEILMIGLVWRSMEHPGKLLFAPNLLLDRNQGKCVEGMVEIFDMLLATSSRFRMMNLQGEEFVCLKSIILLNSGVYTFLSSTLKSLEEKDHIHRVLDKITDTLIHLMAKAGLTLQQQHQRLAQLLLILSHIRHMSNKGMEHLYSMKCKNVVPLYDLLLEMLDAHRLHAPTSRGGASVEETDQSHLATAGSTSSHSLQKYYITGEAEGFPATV

[6] = target: Glutamate receptor ionotropic, NMDA 1 (Rattus norvegicus, UniProt P35439)
[7] = target: 5-hydroxytryptamine receptor 2B (Homo sapiens, UniProt P41595); assay type: functional, cell-based
[8] = target: Vascular endothelial growth factor receptor 2 (Homo sapiens, UniProt P35968); assay type: functional
[9] = target: Kappa-type opioid receptor (Homo sapiens, UniProt P41145)
Mu-type opioid receptor [10] = target: T5, Mu-type opioid receptor (Homo sapiens, UniProt P35372); assay: biochemical; assay type: functional
Mu-type opioid receptor [11] = target: T5, Mu-type opioid receptor
[12] = target: Prostaglandin G/H synthase 1 (Homo sapiens, UniProt P23219); assay type: functional
Thromboxane A2 receptor = target: T6, Thromboxane A2 receptor (Homo sapiens, UniProt P21731)
T6 sequence (P21731 whole entry): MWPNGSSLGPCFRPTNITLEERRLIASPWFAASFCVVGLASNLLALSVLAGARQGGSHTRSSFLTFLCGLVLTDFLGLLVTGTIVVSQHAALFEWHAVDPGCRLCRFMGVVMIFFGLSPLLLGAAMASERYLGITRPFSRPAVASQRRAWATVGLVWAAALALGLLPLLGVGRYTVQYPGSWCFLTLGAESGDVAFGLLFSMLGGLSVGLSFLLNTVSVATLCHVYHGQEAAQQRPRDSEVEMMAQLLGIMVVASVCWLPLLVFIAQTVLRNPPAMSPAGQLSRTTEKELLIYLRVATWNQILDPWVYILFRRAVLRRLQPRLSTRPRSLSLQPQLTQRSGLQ

[13] = target: Muscarinic acetylcholine receptor M3 (Homo sapiens, UniProt P20309)
[14] = target: 5-hydroxytryptamine receptor 2A (Homo sapiens, UniProt P28223); assay type: functional, cell-based
[15] = target: Sodium-dependent serotonin transporter (Homo sapiens, UniProt P31645)
Note: assay procedure not described here.

T5 sequence (P35372 whole entry): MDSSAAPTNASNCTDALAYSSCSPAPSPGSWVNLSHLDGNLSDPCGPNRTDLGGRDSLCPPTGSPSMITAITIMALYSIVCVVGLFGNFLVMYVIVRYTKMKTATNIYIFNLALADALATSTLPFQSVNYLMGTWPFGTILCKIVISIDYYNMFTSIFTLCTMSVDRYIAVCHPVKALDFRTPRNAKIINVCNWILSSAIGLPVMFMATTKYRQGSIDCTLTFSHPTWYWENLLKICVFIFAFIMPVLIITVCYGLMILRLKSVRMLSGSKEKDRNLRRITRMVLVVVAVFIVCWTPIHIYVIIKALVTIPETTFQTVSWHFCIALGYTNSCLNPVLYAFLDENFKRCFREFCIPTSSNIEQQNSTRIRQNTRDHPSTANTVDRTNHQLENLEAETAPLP
Chain of Beta-1 adrenergic receptor (P08588 whole entry): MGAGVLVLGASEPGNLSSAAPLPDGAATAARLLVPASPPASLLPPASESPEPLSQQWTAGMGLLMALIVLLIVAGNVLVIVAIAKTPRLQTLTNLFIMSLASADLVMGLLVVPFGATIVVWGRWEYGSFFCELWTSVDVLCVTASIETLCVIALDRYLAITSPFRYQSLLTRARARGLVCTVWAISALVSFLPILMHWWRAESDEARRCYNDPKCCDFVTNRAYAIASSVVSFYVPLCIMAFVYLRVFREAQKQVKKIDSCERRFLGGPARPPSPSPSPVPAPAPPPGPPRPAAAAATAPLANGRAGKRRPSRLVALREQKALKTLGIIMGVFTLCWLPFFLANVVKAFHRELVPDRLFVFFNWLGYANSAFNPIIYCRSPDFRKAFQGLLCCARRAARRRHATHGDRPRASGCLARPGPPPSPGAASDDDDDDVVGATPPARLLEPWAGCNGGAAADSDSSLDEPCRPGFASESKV
Chain of Vascular endothelial growth factor receptor 2 (P35968 whole entry): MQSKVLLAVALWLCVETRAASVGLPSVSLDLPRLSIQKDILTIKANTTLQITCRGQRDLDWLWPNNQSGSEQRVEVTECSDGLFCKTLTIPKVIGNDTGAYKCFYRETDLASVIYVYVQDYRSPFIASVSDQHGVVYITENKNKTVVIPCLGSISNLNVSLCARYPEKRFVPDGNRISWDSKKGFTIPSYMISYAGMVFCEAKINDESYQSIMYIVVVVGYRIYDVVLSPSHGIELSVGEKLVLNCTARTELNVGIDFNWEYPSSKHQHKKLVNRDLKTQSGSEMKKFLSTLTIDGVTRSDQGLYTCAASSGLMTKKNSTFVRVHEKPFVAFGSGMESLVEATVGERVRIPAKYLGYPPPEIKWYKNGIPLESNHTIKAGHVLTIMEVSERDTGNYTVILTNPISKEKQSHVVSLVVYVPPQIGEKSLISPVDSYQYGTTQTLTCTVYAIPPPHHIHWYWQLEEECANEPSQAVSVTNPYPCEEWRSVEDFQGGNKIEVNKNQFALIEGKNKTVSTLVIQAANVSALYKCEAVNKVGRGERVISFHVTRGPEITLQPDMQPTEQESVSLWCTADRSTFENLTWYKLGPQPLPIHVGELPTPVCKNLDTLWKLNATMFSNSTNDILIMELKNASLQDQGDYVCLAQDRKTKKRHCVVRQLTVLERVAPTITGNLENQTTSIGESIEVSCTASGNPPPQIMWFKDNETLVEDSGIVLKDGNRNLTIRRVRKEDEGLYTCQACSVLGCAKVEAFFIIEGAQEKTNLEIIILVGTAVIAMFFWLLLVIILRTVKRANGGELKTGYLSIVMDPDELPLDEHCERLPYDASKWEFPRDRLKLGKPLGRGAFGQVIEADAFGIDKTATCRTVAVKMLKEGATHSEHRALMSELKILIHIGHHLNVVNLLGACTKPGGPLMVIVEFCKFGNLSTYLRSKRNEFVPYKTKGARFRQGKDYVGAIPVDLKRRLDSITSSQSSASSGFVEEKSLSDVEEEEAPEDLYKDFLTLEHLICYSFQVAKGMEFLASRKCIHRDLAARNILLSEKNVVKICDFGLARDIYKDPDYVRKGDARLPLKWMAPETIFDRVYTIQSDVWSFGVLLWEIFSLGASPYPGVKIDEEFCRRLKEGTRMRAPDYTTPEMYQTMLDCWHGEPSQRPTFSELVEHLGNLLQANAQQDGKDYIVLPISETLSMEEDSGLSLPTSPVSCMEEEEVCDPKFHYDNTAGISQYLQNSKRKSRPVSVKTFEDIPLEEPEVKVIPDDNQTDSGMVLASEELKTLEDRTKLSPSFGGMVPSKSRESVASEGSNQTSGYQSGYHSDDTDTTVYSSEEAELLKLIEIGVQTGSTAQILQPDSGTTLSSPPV
T3 sequence (P21554 whole entry): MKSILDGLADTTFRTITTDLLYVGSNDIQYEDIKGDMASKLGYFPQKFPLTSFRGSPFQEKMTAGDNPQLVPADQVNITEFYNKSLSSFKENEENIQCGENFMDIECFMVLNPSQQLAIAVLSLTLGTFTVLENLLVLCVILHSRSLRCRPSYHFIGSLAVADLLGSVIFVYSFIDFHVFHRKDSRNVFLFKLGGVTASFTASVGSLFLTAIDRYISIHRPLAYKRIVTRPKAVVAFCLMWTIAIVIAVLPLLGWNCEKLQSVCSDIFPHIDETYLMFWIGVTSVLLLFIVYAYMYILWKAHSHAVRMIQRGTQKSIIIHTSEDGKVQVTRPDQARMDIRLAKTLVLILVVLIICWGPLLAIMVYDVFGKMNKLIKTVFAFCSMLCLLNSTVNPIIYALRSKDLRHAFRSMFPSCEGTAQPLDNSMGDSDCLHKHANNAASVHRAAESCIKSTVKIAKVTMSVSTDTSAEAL
Chain of Vasopressin V1a receptor (P37288 whole entry): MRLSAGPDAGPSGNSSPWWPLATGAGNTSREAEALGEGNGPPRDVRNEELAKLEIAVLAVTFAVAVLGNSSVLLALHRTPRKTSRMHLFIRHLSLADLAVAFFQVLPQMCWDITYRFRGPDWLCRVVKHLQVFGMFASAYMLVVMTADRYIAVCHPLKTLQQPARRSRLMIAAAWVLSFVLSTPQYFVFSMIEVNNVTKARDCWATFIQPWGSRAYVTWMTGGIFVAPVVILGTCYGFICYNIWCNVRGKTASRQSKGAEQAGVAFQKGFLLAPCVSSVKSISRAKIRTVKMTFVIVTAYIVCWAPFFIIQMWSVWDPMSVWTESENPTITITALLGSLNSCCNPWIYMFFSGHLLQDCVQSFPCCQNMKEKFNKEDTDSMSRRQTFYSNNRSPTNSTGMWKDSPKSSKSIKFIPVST
Chain of Vasopressin V2 receptor (P30518 whole entry): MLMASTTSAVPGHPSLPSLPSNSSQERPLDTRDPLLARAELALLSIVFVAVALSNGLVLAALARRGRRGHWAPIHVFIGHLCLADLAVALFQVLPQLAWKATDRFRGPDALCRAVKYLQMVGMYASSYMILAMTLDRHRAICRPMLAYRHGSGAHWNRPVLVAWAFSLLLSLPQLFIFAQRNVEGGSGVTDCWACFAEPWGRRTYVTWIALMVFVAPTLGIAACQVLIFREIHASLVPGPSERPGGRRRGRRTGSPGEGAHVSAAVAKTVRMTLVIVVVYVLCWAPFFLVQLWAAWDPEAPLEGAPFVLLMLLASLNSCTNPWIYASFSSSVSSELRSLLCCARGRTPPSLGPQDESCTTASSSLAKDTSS
Chain of Prostaglandin G/H synthase 1 (P23219 whole entry): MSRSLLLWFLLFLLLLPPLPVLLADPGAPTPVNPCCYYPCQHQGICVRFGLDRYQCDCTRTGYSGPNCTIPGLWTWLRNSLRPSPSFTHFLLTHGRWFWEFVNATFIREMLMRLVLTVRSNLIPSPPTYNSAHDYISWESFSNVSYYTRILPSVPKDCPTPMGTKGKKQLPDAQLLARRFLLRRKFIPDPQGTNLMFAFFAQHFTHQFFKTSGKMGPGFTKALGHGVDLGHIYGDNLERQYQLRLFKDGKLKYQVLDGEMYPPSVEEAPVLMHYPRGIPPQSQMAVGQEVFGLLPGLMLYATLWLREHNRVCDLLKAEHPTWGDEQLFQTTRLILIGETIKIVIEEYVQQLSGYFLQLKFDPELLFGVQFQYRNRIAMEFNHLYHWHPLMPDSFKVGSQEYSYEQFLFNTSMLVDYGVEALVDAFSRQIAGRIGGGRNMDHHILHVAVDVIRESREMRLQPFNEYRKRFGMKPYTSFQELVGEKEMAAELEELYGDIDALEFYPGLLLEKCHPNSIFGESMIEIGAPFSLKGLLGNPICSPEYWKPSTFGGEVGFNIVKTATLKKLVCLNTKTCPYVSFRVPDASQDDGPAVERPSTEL
Chain of D(3) dopamine receptor (P35462 whole entry): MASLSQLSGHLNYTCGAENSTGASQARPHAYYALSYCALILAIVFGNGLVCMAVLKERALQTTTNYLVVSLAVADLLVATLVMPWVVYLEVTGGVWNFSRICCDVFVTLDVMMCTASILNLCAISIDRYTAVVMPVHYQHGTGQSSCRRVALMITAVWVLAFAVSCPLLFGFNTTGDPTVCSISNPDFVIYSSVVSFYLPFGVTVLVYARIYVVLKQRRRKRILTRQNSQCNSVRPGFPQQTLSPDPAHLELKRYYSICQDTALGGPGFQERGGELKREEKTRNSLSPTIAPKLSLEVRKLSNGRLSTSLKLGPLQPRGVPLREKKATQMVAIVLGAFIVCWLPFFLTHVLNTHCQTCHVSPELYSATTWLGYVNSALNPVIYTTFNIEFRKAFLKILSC
Chain of 5-hydroxytryptamine receptor 2B (P41595 whole entry): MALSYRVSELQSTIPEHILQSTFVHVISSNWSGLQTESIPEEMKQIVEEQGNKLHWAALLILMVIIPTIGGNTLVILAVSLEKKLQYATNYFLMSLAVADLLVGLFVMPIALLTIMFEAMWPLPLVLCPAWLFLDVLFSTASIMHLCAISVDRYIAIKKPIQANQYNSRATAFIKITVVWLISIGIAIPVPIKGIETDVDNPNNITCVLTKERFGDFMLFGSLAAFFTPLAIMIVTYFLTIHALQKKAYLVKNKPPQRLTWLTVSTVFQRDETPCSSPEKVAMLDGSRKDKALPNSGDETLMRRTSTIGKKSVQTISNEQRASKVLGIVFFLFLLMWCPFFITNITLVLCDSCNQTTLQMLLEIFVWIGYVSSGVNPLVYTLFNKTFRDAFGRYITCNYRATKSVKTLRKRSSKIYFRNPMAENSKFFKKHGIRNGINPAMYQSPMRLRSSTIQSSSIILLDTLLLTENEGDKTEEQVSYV

| SMILES | AC50 (Acetylcholinesterase) [µM] | AC50 [1] [µM] | AC50 [2] [µM] | AC50 [3] [µM] | AC50 (Vasopressin V1a receptor) [µM] | AC50 (Vasopressin V2 receptor) [µM] | AC50 (Cannabinoid receptor 1 [4]) [µM] | AC50 (Cannabinoid receptor 1 [5]) [µM] | AC50 (D(1A) dopamine receptor) [µM] | AC50 (D(3) dopamine receptor) [µM] | AC50 (Estrogen receptor) [µM] | AC50 [6] [µM] | AC50 [7] [µM] | AC50 [8] [µM] | AC50 [9] [µM] | AC50 (Mu-type opioid receptor [10]) [µM] | AC50 (Mu-type opioid receptor [11]) [µM] | AC50 [12] [µM] | AC50 (Thromboxane A2 receptor) [µM] | further results |
| --- | --- | --- | --- | --- | --- | --- | --- | --- | --- | --- | --- | --- | --- | --- | --- | --- | --- | --- | --- | --- |
| Nc1nc(N)c2nc(-c3ccccc3)c(N)nc2n1 | > 30 | > 30 | > 30 | > 30 | > 30 | > 30 | > 30 | > 30 | > 30 | > 30 | > 30 | > 30 | > 30 | > 30 | > 30 | > 30 | 29.1 | > 30 | > 30 | – |
| Oc1ncnc2[nH]ncc12 [ALLOPURINOL] | > 30 | > 30 | > 30 | > 10 | > 10 | > 30 | > 30 | > 10 | > 30 | > 30 | > 30 | > 10 | > 30 | > 30 | > 10 | – | > 30 | > 30 | > 30 | – |
| COc1cc2c(cc1OC)C(=O)C(CC1CCN(Cc3ccccc3)CC1)C2 (stereo not drawn) [DONEPEZIL] | – | – | 15.9 | > 10 | > 30 | > 30 | > 30 | > 10 | > 30 | – | > 30 | – | – | > 30 | > 10 | – | > 30 | > 30 | > 30 | AC50 [13]: > 30 µM; AC50 [14]: > 30 µM; AC50 [15]: > 30 µM |
| CC(C)C(=O)Nc1ccc([N+](=O)[O-])c(C(F)(F)F)c1 [FLUTAMIDE] | > 30 | > 30 | > 30 | > 10 | > 30 | > 30 | – | > 10 | > 30 | > 30 | > 30 | > 10 | > 30 | > 30 | > 10 | > 30 | > 30 | > 30 | > 30 | – |
| CCc1ccc(CCOc2ccc(CC3SC(=O)NC3=O)cc2)nc1 (stereo not drawn) [PIOGLITAZONE] | > 30 | > 30 | > 30 | > 10 | > 30 | > 30 | – | – | > 30 | > 30 | > 30 | > 10 | > 30 | > 30 | > 10 | > 30 | > 30 | > 30 | > 30 | – |
| CC(C(=O)O)c1ccc(N2CC=CC2)c(Cl)c1 (stereo not drawn) [PIRPROFEN] | > 30 | > 30 | > 30 | > 10 | > 10 | > 30 | > 30 | > 10 | > 30 | > 30 | > 30 | > 10 | > 30 | > 30 | > 10 | – | > 30 | 0.115 | > 30 | AC50 [13]: > 10 µM; AC50 [14]: > 30 µM; AC50 [15]: > 10 µM |
| CC(O)CO (stereo not drawn) [PROPYLENE GLYCOL] | > 30 | > 30 | > 30 | – | – | – | – | – | > 30 | > 30 | > 30 | – | > 30 | > 30 | – | – | > 30 | > 30 | – | – |
| NC(=O)c1cnccn1 [PYRAZINAMIDE] | > 30 | > 30 | > 30 | > 30 | > 30 | > 30 | > 30 | > 30 | > 30 | > 30 | > 30 | > 30 | > 30 | > 30 | > 30 | > 30 | > 30 | > 30 | > 30 | – |
| CC(C)OC(=O)[C@H](C)N[P@](=O)(OC[C@H]1O[C@@H](n2ccc(=O)[nH]c2=O)[C@](C)(F)[C@@H]1O)Oc1ccccc1 [SOFOSBUVIR] | > 30 | > 30 | > 30 | – | – | – | – | – | > 30 | > 30 | > 30 | – | > 30 | > 30 | – | – | > 30 | > 30 | – | – |
| Cc1ccc(O)c2ncccc12 [TILIQUINOL] | > 30 | > 30 | > 30 | – | – | – | – | – | > 30 | > 30 | > 30 | – | > 30 | > 30 | – | – | > 30 | > 30 | – | – |
| CC(=O)OC[C@H]1O[C@@H](n2ccc(=O)[nH]c2=O)[C@H](OC(C)=O)[C@@H]1OC(C)=O [URIDINE TRIACETATE] | > 30 | > 30 | > 30 | – | – | – | – | – | > 30 | > 30 | > 30 | – | > 30 | > 30 | – | – | > 30 | > 30 | – | – |
| CCOC(=O)N[C@@H]1CC[C@@H]2[C@@H](C1)C[C@H]1C(=O)O[C@H](C)[C@H]1[C@H]2/C=C/c1ccc(-c2cccc(F)c2)cn1 [VORAPAXAR] | > 30 | > 30 | > 30 | – | – | – | – | – | > 30 | > 30 | > 30 | – | > 30 | > 30 | – | – | 0.82 | > 30 | – | – |
